Measured values reported in ChEMBL document CHEMBL5046301, “pH-Responsive Antimicrobial Peptide with Selective Killing Activity for Bacterial Abscess Therapy” (J Med Chem, 2022).
Active and inactive are the calls of the source. No cut-off for these calls is given here.

Key:
Mus musculus [1] = test: Antiinflammatory activity in ICR cutaneous abscess mouse model assessed as reduction in IL-2 expression in serum at 5 mg/kg,ip administered twice a day measured after 72 hrs by ELISA (reference value: 1.53 +/ 0.06 10^3pg/ml); type: functional
Salmonella typhimurium [2] = test: Antibacterial activity against Salmonella typhimurium ATCC 14028 assessed as inhibition of bacterial growth at pH 7.4 incubated for 24 hrs by NCCLS protocol based method; type: functional, Salmonella enterica subsp. enterica serovar Typhimurium; conditions: Salmonella enterica
Staphylococcus aureus [3] = test: Antibacterial activity against methicillin-resistant Staphylococcus aureus ATCC 43300 assessed as inhibition of bacterial growth at pH 7.4 incubated for 24 hrs by NCCLS protocol based method; type: functional
[4] = Toxicity in ICR cutaneous abscess mouse model assessed as reduction in epidermal cell apoptosis at 10 mg/kg,sc measured after 24 hrs by TUNEL assay; type: organism-based; conditions: in vivo
Pseudomonas aeruginosa [5] = test: Antimicrobial activity against Pseudomonas aeruginosa ATCC 27853 assessed as reduction in bacterial growth at pH 6.5 in presence of CaCl2; type: functional, organism-based
Salmonella typhimurium [6] = test: Antibacterial activity against Salmonella enterica subsp. enterica serovar Typhimurium C77-31 assessed as inhibition of bacterial growth at pH 6.5 incubated for 24 hrs by NCCLS protocol based method; type: functional
[7] = Hemolytic activity in human RBC assessed as hemoglobin release at pH 7.4 incubated for 1 hr; type: toxicity, cell-based; conditions: erythrocyte, pH 7.4, 1 h
Mus musculus [8] = test: Antiinflammatory activity in ICR cutaneous abscess mouse model assessed as reduction in TNF-alpha expression in serum at 5 mg/kg,ip administered twice a day measured after 72 hrs by ELISA (reference value: 1.01 +/ 0.46 10^3 pg/ml); type: functional
Pseudomonas aeruginosa [9] = test: Induction of morphological changes in Pseudomonas aeruginosa ATCC 27853 assessed as plasma membrane collapse at 2 uM at pH 6.5 incubated for 1 hr by TEM analysis; type: functional, organism-based
Pseudomonas aeruginosa [10] = test: Antipseudomonal activity against Pseudomonas aeruginosa ATCC 27853 infected in ICR cutaneous abscess mouse model assessed as fold reduction in colony forming unit at 5 mg/kg,ip administered twice a day measured after 72 hrs relative to control; type: functional
[11] = tested on: Staphylococcus epidermidis; test: Antibacterial activity against Staphylococcus epidermidis ATCC 12228 assessed as inhibition of bacterial growth at pH 7.4 incubated for 24 hrs by NCCLS protocol based method; type: functional
Pseudomonas aeruginosa [12] = test: Antimicrobial activity against Pseudomonas aeruginosa ATCC 27853 assessed as reduction in bacterial growth at pH 6.5 in presence of FeCl3; type: functional, organism-based
Staphylococcus aureus [13] = test: Antibacterial activity against methicillin-resistant Staphylococcus aureus ATCC 43300 assessed as inhibition of bacterial growth at pH 6.5 incubated for 24 hrs by NCCLS protocol based method; type: functional
Pseudomonas aeruginosa [14] = test: Antimicrobial activity against Pseudomonas aeruginosa ATCC 27853 infected in ICR cutaneous abscess mouse model assessed as reduction in colony forming units at 5 mg/kg,ip administered twice a day measured after 72 hrs (reference value: 5.08 +/ 1.84 10^10 CFU/mL ); type: functional

H-FLEHLIPHVIHGLVHAIHH-NH2
Activity (Mus musculus [1]): 1.15 10^3pg/ml | MIC (Salmonella typhimurium [2]): > 64 µM | MIC (Staphylococcus aureus [3]): > 64 µM | Activity [4]: Non-Toxic | Activity (Pseudomonas aeruginosa [5]): Active | MIC (Salmonella typhimurium [6]): 8 µM | MHC10 [7]: > 128 µM | Activity (Mus musculus [8]): 8.14 10^2pg/ml | Activity (Pseudomonas aeruginosa [9]): Active | fold change (FC) (Pseudomonas aeruginosa [10]): 10 | MIC [11]: > 64 µM | Activity (Pseudomonas aeruginosa [12]): Active | MIC (Staphylococcus aureus [13]): 64 µM | Activity (Pseudomonas aeruginosa [14]): 2.16 10^9CFU/ml
